Drawing on ChEMBL document CHEMBL1141460, “Sodium channel blockers” (J Med Chem, 2007), this text covers Ki, IC50 and ED50 for 2 compounds.

The Ki is the equilibrium dissociation constant of an inhibitor or competing ligand from its target. Lower therefore signals a stronger hold on the target. One may read the IC50 as the point on the concentration scale where inhibition reaches its midpoint. Low readings indicate higher potency, high ones lower potency.

Assay [1] concerns the target Sodium channel protein type 10 subunit alpha (Homo sapiens, UniProt Q9Y5Y9). In words: Binding affinity to Nav1.8 sodium channel.
Assay [2] addresses Sodium channel protein type 9 subunit alpha (Homo sapiens, UniProt Q15858). The assay is described as follows: Binding affinity to Nav1.7 sodium channel.
In assay [3] the target is Sodium channel protein type 2 subunit alpha (Homo sapiens, UniProt Q99250). In words: Inhibition of inactivated human Nav1.2 sodium channel.
The species named for assay [4] is Rattus norvegicus. The assay is described as follows: Effect on locomotor activity in rat. The class given is functional.
The species named for assay [5] is Rattus norvegicus. The assay is described as follows: Effect on […] in rat by rotarod test. It is filed as functional. (The rotarod test checks motor coordination on a turning rod.)
For assay [6], the system named is Rattus norvegicus. In words: Analgesic activity in ip dosed rat by CCI model of neuropathic pain. The class given is functional.
For assay [7], the system named is Rattus norvegicus. The assay is described as follows: Analgesic activity in ip dosed rat by chung model of neuropathic pain. The class given is functional.
For assay [8], the target named is Sodium channel protein type 5 subunit alpha (Homo sapiens, UniProt Q14524). The assay is described as follows: Inhibition of inactivated human Nav1.5 sodium channel.
Chain of Sodium channel protein type 5 subunit alpha (Q14524 whole entry): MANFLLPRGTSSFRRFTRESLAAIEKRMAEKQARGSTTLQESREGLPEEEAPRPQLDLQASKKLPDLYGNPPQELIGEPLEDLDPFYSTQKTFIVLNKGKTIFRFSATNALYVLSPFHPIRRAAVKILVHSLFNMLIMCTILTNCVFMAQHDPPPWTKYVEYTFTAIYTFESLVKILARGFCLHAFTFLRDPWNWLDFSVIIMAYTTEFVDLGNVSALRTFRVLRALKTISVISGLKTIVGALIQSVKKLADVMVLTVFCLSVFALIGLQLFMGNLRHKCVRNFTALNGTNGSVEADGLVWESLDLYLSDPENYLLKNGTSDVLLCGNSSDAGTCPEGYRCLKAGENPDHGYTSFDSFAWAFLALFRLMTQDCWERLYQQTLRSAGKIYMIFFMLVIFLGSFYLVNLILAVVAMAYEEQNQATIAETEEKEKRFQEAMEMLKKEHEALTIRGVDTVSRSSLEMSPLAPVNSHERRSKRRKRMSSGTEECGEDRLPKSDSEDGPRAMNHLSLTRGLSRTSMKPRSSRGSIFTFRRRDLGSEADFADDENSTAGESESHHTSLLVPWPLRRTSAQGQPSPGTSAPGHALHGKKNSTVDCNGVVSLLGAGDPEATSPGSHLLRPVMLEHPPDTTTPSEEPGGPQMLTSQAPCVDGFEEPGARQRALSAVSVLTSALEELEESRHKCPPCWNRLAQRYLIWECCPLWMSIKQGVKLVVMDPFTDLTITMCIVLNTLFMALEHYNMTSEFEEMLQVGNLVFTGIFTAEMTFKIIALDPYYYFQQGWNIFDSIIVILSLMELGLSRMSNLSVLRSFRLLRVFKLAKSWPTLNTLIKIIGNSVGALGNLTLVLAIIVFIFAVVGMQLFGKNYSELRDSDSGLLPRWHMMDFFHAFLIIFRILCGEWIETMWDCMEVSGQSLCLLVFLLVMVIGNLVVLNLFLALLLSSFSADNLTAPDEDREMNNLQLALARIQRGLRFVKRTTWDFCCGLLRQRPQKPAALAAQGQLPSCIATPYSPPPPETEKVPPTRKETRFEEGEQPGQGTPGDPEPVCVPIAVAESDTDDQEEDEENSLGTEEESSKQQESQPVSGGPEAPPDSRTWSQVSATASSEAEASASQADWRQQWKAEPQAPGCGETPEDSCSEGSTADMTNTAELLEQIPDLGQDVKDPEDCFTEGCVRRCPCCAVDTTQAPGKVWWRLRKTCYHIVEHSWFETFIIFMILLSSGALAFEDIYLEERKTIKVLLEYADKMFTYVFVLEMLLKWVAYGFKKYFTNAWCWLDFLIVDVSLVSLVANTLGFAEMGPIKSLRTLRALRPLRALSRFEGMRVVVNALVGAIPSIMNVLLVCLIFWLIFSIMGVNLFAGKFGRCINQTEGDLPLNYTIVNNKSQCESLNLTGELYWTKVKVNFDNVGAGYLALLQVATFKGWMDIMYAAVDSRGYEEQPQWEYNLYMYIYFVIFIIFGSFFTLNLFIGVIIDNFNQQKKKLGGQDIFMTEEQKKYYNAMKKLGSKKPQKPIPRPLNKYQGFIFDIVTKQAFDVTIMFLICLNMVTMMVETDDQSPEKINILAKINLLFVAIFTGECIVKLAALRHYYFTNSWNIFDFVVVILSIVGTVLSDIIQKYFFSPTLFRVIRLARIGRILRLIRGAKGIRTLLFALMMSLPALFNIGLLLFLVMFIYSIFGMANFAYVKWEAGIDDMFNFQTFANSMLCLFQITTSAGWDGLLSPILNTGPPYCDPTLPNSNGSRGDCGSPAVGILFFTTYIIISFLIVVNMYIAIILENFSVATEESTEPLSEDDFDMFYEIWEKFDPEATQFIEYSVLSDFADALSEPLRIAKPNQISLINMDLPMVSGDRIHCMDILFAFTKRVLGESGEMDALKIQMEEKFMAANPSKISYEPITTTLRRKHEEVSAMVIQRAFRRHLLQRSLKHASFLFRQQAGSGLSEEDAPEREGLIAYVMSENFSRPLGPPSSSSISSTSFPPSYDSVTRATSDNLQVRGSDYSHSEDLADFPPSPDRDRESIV

Each structure is given as a SMILES string.

Chain of Sodium channel protein type 10 subunit alpha (Q9Y5Y9 whole entry): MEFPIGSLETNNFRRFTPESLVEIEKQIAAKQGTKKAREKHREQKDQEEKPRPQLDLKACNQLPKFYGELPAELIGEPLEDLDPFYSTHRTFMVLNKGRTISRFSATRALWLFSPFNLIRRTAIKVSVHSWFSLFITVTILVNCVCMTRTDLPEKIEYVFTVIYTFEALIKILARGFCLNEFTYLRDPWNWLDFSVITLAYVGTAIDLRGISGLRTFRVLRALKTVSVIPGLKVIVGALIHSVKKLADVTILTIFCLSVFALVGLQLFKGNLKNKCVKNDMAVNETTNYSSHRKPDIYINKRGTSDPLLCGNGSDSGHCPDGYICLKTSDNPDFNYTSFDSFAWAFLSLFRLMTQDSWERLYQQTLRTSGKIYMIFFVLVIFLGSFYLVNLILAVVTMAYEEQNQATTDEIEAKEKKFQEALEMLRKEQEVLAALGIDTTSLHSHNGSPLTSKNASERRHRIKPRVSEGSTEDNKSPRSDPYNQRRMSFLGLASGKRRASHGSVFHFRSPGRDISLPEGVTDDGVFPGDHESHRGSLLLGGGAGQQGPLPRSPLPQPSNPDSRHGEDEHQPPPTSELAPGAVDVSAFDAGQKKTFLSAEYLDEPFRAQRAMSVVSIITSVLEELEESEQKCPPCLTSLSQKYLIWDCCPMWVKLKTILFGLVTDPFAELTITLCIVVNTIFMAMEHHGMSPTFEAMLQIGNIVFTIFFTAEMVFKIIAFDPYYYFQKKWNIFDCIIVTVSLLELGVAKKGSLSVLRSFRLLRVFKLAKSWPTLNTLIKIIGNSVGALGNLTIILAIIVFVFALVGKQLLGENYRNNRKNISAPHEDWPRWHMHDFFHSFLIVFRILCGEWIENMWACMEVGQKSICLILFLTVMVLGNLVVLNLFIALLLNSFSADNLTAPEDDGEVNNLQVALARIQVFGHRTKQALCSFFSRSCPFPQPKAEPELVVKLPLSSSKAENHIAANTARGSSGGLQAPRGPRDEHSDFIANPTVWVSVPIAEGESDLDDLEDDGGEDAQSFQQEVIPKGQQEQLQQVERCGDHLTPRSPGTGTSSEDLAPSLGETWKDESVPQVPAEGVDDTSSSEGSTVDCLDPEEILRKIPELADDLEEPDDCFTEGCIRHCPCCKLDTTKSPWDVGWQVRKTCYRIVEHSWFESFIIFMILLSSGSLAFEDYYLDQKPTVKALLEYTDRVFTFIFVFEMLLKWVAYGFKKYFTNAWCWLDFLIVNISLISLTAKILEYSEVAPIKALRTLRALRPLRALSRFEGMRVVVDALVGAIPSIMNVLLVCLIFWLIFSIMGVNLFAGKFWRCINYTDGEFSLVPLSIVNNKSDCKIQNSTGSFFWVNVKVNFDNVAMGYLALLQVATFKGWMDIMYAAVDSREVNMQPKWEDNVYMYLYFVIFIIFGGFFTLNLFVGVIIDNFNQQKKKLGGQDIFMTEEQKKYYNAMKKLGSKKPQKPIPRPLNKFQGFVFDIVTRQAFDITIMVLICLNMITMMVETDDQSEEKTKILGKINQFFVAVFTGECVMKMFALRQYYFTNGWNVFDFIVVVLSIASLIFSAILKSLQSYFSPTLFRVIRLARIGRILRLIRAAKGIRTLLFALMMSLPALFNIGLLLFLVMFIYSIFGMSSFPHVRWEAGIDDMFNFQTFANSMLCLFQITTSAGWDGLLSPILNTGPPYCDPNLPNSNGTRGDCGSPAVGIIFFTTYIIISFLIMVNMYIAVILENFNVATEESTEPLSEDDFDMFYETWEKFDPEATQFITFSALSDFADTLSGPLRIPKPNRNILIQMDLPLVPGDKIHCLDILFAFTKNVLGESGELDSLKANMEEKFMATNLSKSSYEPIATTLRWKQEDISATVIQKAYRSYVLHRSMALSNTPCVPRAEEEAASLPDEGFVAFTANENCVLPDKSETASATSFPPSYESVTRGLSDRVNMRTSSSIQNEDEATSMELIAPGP

`CN(Cc1ccc(-c2ccccc2S(N)(=O)=O)cc1)C(=O)[C@@H]1CCC[C@H]1C(=O)NCc1ccc(OC(F)(F)F)cc1`: the Ki in assay [1] came to 0.18 µM; in assay [2], 0.25 µM.
As to `COc1cc(NC(=O)c2ccc(-c3ccc(Cl)cc3)o2)cc(OC)c1`, the IC50 in assay [3] worked out at 7.18 µM; in assay [8], 7.44 µM. The ED50 was >300 µM in assay [4], >300 µM in assay [5], 86 µM in assay [6] and 47 µM in assay [7].
